{"source": "patent US11660326B2", "about": "“Bacterial-binding peptides for treatment of infectious diseases and related inflammatory processes” (priority 2018, dated 2023)", "key": {"[1]": {"assay": "Solid phase binding assay (ELISA) of biotin-labeled peptides to immobilized LPS", "set-up": "species or system E. coli", "details": "biotin-labeled peptide 5-20 μg/mL; LPS 5 μg/mL coated", "protocol": "FIG. 3. Binding of biotin-labeled CD6-derived peptides to immobilized PAMPs from Gram- and Gram+ origin. Increasing concentrations (5-20 μg/mL) of biotin-labeled CD6- (PD1, PD2, PD3 and cons), DMBT1- (pbs1), and CD5- (PD1) derived peptides were added to 96-well ELISA plates sensitized with E. coli 0111:B4 LPS (A) or S. aureus LTA (B) (5 μg/mL each in PBS). Following overnight incubation at 4° C. bound peptides or proteins were developed by addition of horseradish peroxidase (HRP)-labeled streptavidin and 3,3′,5,5′-tetramethylbenzidine (TMB) substrate and further readings at OD 405-620 nm. Results are expressed as mean±SD of duplicates from one representative experiment of three performed. Statistical analysis was performed by two-way ANOVA (*,P<0.05; **, P<0.01; ***, P<0.001).\nSolid Phase Binding Assays. 96-well microtiter plates (Nunc, Roskilde, Denmark) were coated overnight at 4° C. with 5 μg/mL of purified LPS (E. coli 0111:B4, Sigma L2630) or LTA (S. aureus, Sigma L2515) in PBS, and then incubated for 2 h at room temperature in blocking solution (20 mM Tris-HCl pH 7.4 plus 0.05% Tween 20 and 1% BSA). Biotin-labeled peptides/proteins (2.5-20 μg/mL) were added and incubated overnight at 4° C. in blocking solution. After extensive washing, bound peptides/proteins were detected by the addition of horseradish peroxidase (HRP)-labeled streptavidin (1:5,000 dilution; DAKO) for 1 h at room temperature. Color was developed by adding 3,3′,5,5′-tetramethylbenzidine (TMB) liquid substrate (Sigma), and optical density read at 405-620 nm."}, "[2]": {"assay": "Endotoxin adsorption on peptide/protein-coated Eupergit beads (LAL assay)", "details": "50 UI/mL LPS, 0-150 min, vs HSA- and rshCD5-coated controls", "protocol": "FIG. 11. Endotoxin adsorption assays on immobilized CD6-derived peptides and proteins. Eupergit® beads coated with different CD6-derived peptides (PD2, PD3, and Pcons) (A) or proteins (rshCD5 and rshCD6) (B) were incubated for different periods of time (0, 30, 90 and 150 min) with a 50 UI/mL endotoxin solution. Limulus amoebocyte lysate activating activity (LAL activity) of supernatants was then monitored along time and the OD 405-620 nm represented. Beads coated with Human Serum Albumin (HSA) were used as negative controls. Shown are triplicates of a representative experiment from two independent performed. Statistical analysis was done by using the 2-tailed paired T test with 95% confidence interval (***, P<0.001).\nProteins or peptides (2.5 mg each) were immobilized via NH2 groups on macroporous acrylic EUPERGIT© beads (0.2 g; Röhm-Pharma GmbH, Germany) following a previously described protocol (Zimmermann M, et al., 1999, Endotoxin adsorbent based on immobilized human serum albumin. Clin Chem Lab Med 37:373-379). Peptide or protein-coated Eupergit® beads are obtained by incubation with stirring of the polymeric beads at room temperature with a solution of the peptides of the invention in sodium phosphate buffer 100 mM pH 8 for 24 hours. After incubation, the beads were washed 3 times with 3 M sodium chloride pH 7.0, 30 mM sodium phosphate buffer pH 4.0 and 30 mM sodium phosphate buffer pH 8.0. Finally, 154 mM sodium chloride solution pH 7.0 was added to the peptide or protein-coated beads.\nLPS detection was performed by using the turbidimetric-kinetic Limulus Amebocyte Lysate (LAL) kit-QCL (50-650U, Lonza) following manufacturer's instructions. Protein/peptide-coated EUPERGIT® beads were incubated 1:1 (v:v) with the provided endotoxin solution (50 UI/mL) for different periods of time (0-150 min) at room temperature following manufacturer's instructions."}, "[3]": {"assay": "Intrinsic tryptophan fluorescence binding, apparent Kd for Re-LPS", "set-up": "species or system Salmonella minnesota serotype Re 595", "details": "for Kd: PBS, peptide 10 μg/mL, Hill fit", "protocol": "(§1) FIG. 4. Kd analysis of the LPS and LTA interaction with CD6-derived peptides and protein. The apparent Kd values for the binding of peptides and proteins in study to LPS and LTA determined by fluorescence emission of tryptophan residues are shown. Peptides/proteins (10 μg/mL) were titrated with or without increasing concentrations of Re-LPS or LTA in PBS. Peptide samples (with and without either Re-LPS or LTA) and blank samples (Re-LPS or LTA alone) were excited at 295 nm, and the emission spectra recorded from 300 to 400 nm. Results are expressed as the change in peptide fluorescence (AF) at the wavelength of the emission maxima (353 nm for the peptides and 337 nm for rshCD6 protein) in the presence and absence of either Re-LPS or LTA. Results are means±SD of 3 experiments. Peptide fluorescence changes at 353 nm were fitted to the Hill equation.\n(§2) Intrinsicfluorescence experiments. To explore the ability of different peptides/proteins to bind LTA (Mr=14,000, from S. aureus) and rough LPS (Re-LPS, Mr=2500, from Salmonella minnesota serotype Re 595), binding studies were carried out in an AB2 spectrofluorimeter with a thermostated cuvette holder (±0.1° C.), using 5×5 mm path-length quartz cuvettes as described (Coya J M, et al., 2015, Natural Anti-Infective Pulmonary Proteins: In Vivo Cooperative Action of Surfactant Protein SP-A and the Lung Antimicrobial Peptide SP-BN, J Immunol 195:1628-36). Re-LPS concentration was assessed by quantification of 2-keto-3-deoxyoctulosonic acid (Garcia-Verdugo I, et al., 2003, Effect of hydroxylation and N187-linked glycosylation on molecular and functional properties of recombinant human surfactant protein A, Biochemistry 42:9532-42). Peptide/protein samples (10 μg/mL) were titrated with different amounts of a stock solution of either LTA or Re-LPS in phosphate buffered saline (PBS) pH 7.2, and the Trp fluorescence emission spectra recorded with excitation at 295 nm. The fluorescence intensity readings were corrected for the dilution caused by […]. Background intensities in peptide/protein-free samples due to LTA or Re-PS were subtracted from each recording. The apparent dissociation constant (Kd) of peptide/protein-ligand complexes were obtained by nonlinear least-squares fitting to the Hill equation of the change in peptide fluorescence at 353 nm with the amount of added LTA or Re-LPS (Garcia-Verdugo I, et al., 2003, Effect of hydroxylation and N187-linked glycosylation on molecular and functional properties of recombinant human surfactant protein A, Biochemistry 42:9532-42): ΔF/ΔFmax=[L]^n/([L]^n+Kd), where ΔF is the change in fluorescence intensity at 353 nm relative to the intensity of free peptide; ΔFmax is the change in fluorescence intensity at saturating LTA or Re-LPS concentrations; [L] is the molar concentration of free ligand; and n is the Hill coefficient."}, "[4]": {"assay": "Intrinsic tryptophan fluorescence binding, apparent Kd for LTA", "set-up": "species or system S. aureus", "details": "for Kd: PBS, peptide 10 μg/mL, Hill fit", "protocol": "as §1, §2"}}, "note": "Read-outs that look alike come from different tables or passages of the source."}
{"sequence": "GQVEVHFRGVW (CD6.PD3)", "values": [{"measurement": "binding to immobilized LPS (ELISA)", "setting": "[1]", "result": "excelled in its ability to bind"}, {"measurement": "endotoxin levels (LAL assay)", "setting": "[2]", "result": "reduced endotoxin levels"}]}
{"sequence": "GRVEMLEHGEW [CD6.PD2]", "values": [{"measurement": "affinity / Kd for LPS, in words", "setting": "[3]", "result": "lower than the prototypical DMBT1.pbs1 and CD6.cons peptides or the rshCD6 protein itself"}, {"measurement": "Kd", "setting": "[3]", "result": "35 ± 2", "unit": "nM"}, {"measurement": "affinity / Kd for LPS, in words", "setting": "[3]; listed as PD2", "result": "very high affinity"}, {"measurement": "affinity / Kd for LTA, in words", "setting": "[4]", "result": "lower than the prototypical DMBT1.pbs1 and CD6.cons peptides or the rshCD6 protein itself"}, {"measurement": "Kd", "setting": "[4]", "result": "0.31 ± 0.04", "unit": "nM"}, {"measurement": "affinity / Kd for LTA, in words", "setting": "[4]; listed as PD2", "result": "very high affinity"}, {"measurement": "endotoxin levels (LAL assay)", "setting": "[2]", "result": "reduced endotoxin levels"}]}
{"sequence": "GTVEVRLEASW [CD6.PD1]", "values": [{"measurement": "affinity / Kd for LPS, in words", "setting": "[3]", "result": "lower than the prototypical DMBT1.pbs1 and CD6.cons peptides or the rshCD6 protein itself"}, {"measurement": "Kd", "setting": "[3]", "result": "3.5 ± 0.3", "unit": "nM"}, {"measurement": "affinity / Kd for LPS, in words", "setting": "[3]; listed as PD1", "result": "very high affinity"}, {"measurement": "affinity / Kd for LTA, in words", "setting": "[4]", "result": "lower than the prototypical DMBT1.pbs1 and CD6.cons peptides or the rshCD6 protein itself"}, {"measurement": "Kd", "setting": "[4]", "result": "0.39 ± 0.06", "unit": "nM"}, {"measurement": "affinity / Kd for LTA, in words", "setting": "[4]; listed as PD1", "result": "very high affinity"}]}
